Measurements reported in patent publication US4206215A, “Antimicrobial bis-[4-(substituted-amino)-1-pyridinium]alkanes” (Sterling Drug Inc., priority 1977, dated 1980).
Like-named read-outs stand apart in the source and are kept apart here.

How the values were obtained:
[1] = tested on: young adult male Swiss-Webster strain albino mice; test: Acute oral toxicity (ALD50); type: in vivo; conditions: for Mortality 7 Days / Mortality 24 Hrs: suspension in 1% G.T.
Protocol: (§1) The acute oral toxicity (ALD50) of several representative examples was determined as follows: Groups of 3 young adult male Swiss-Webster strain albino mice were fasted approximately 4 hours before medication and then medicated once orally by stomach tube.

[2] = Acute oral toxicity (ALD50); type: in vivo; conditions: mouse, in vivo, po, mice, suspension in 1% gum tragacanth; read-out: 7-Day ALD50
Protocol: as §1

[3] = tested on: A. niger 16404; test: In vitro antifungal activity, MIC (modified Autotiter method); type: cell-based, Aspergillus niger; conditions: 18-20 hours at 37° C.; for MIC: Aspergillus niger, 16404, 20 h, read-out: MIC A. niger 16404
Outline: (§2)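 Steps: prepare compound at 1,000 mcg./ml.; load first cup; instrument transfers and halves concentration serially into sterile water; inoculated double-strength semisynthetic glucose medium added to every cup. Final concentrations 500 to 0.06 mcg./ml.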

[4] = tested on: P. mirab. MGH-1; test: In vitro antibacterial activity, MIC (modified Autotiter method); type: cell-based, Proteus mirabilis; conditions: 18-20 hours at 37° C.; for MIC: Proteus mirabilis, 20 h, read-out: MIC P. mirab. MGH-1
Outline: as §2

[5] = tested on: T. menta. 9129; test: In vitro antifungal activity, MIC (modified Autotiter method); type: cell-based, Trichophyton mentagrophytes; conditions: 18-20 hours at 37° C.; for MIC: Trichophyton mentagrophytes, 20 h, read-out: MIC T. menta. 9129
Outline: as §2

[6] = tested on: S. Aureus Smith; test: In vitro antibacterial activity, MIC (modified Autotiter method); type: cell-based, Staphylococcus aureus; conditions: 18-20 hours at 37° C.; for MIC: Staphylococcus aureus, 20 h, read-out: MIC S. Aureus Smith
Outline: as §2

[7] = tested on: C. albicans Wisc.; test: In vitro antifungal activity, MIC (modified Autotiter method); type: cell-based, Candida albicans; conditions: 18-20 hours at 37° C.; for MIC: Candida albicans, 20 h, read-out: MIC C. albicans Wisc.
Outline: as §2

[8] = tested on: C. albicans 10231; test: as above; type: cell-based, Candida albicans; conditions: 18-20 hours at 37° C.; for MIC: Candida albicans, 10231, 20 h, read-out: MIC C. albicans 10231
Outline: as §2

[9] = tested on: K. pneum. 39645; test: In vitro antibacterial activity, MIC (modified Autotiter method); type: cell-based, Klebsiella pneumoniae; conditions: 18-20 hours at 37° C.; for MIC: Klebsiella pneumoniae, 20 h, read-out: MIC K. pneum. 39645
Outline: as §2

[10] = tested on: E. coli AB1932-1; test: as above; type: cell-based, Escherichia coli; conditions: 18-20 hours at 37° C.; for MIC: Escherichia coli, AB19321, 20 h, read-out: MIC E. coli AB1932-1
Outline: as §2

[11] = tested on: E. coli Vogel; test: as above; type: cell-based, Escherichia coli; conditions: 18-20 hours at 37° C.; for MIC: Escherichia coli, 20 h, read-out: MIC E. coli Vogel
Outline: as §2

[12] = tested on: E. coli 100/B22; test: as above; type: cell-based, Escherichia coli; conditions: for MIC E. coli 100/B22: 18-20 hours at 37° C.; for MIC: Escherichia coli, 100/B22, 20 h, read-out: MIC E. coli 100/B22, 18-20 hours at 37° C.
Outline: as §2

[13] = tested on: S. pyogen. C203; test: as above; type: cell-based, Streptococcus pyogenes; conditions: 18-20 hours at 37° C.; for MIC: Streptococcus pyogenes, 20 h, read-out: MIC S. pyogen. C203
Outline: as §2

[14] = tested on: Ps. aerug. MGH-2; test: as above; type: cell-based, Pseudomonas aeruginosa; conditions: 18-20 hours at 37° C.; for MIC: Pseudomonas aeruginosa, 20 h, read-out: MIC Ps. aerug. MGH-2
Outline: as §2

[15] = tested on: Streptococcus mutans OMZ-61; test: Dental plaque-preventive effectiveness in the presence of sterile human saliva (50%); type: cell-based; conditions: 50% sterile human saliva
Protocol: The dental plaque preventive activity of certain of the compounds of the present invention was determined by measuring the ability of these compounds to inhibit the production of dental plaque by Streptococcus mutans OMZ-61 as follows:
A culture medium for the plaque-producing Streptococcus mutans OMZ-61 containing 1.5 g. of BBL beef extract, 5 g. of sodium chloride, 10 g. of dehydrated trypticase, 5 g. of sucrose and sufficient distilled water to give a total volume of 1000 ml. is adjusted to pH 7.0 and sterilized by membrane filtration. The medium is dispensed aseptically in 10-ml. aliquots into 150×16 mm. test tubes and stored at refrigeration temperature until used.
Two concentrations of the compound to be tested are prepared by dissolving 100 mg. of the compound in 1 ml. of distilled water with the aid of sufficient 0.1 N sodium hydroxide, 10% dimethylsulfoxide or 10% N,N-dimethylformamide and diluting the resulting solution to 10 ml. with distilled water. This 1.0% solution and a 1:10 dilution in distilled water (0.1%) are sterilized by membrane filtration before use.
A sterile piece of plaque-free natural tooth enamel or synthetic hydroxylapatite is suspended in each concentration of compound for two 1-minute periods, each followed by a 1-minute air drying period. Each piece is then suspended and agitated for 5 minutes in individual test tubes containing sterile distilled water (rinse). They are then suspended in 10 ml. of liquid beef extract medium to which has been added 0.3 ml. of a 24-hr. anaerobic culture of Streptococcus mutans. The tubes containing the "treated" hydroxylapatite and the Streptococcus mutans are then incubated anaerobically at 37° C. for 24 hours. The same process of two 1-minute soaks in the solution of compound, each followed by 1 minute of air drying and the final 5-minute rinse is repeated before once again suspending the hydroxylapatite in a fresh tube containing 10 ml. of beef extract medium and 0.3 ml. of inoculum. At the end of the second 24-hour period, each piece of hydroxylapatite is rinsed for 1 minute in 3 successive tubes of distilled water. These are then suspended for 1 minute in a solution of F, D & C Red No. 3 dye. This staining procedure is used in order to identify more easily the development of plaque after the 48-hour period of exposure to the plaque-producing organism. The staining period is followed by another 10-second rinse to remove excess dye. Any plaque formation stains a brilliant pink. […] Active compounds are tested at successively lower doses in order to determine the minimum effective concentration. On some occasions, the interference of plaque production is caused by the inhibition of growth of the organism in the culture medium because the compound has been leached from the hydroxylapatite to produce an antibacterial level in the medium. When this occurs, the compound is tested at lower concentrations until the growth of the organism in the surrounding medium is equal to that in the nonmedicated control culture. Plaque may or may not be formed at these lower concentrations.
Dental plaque-preventive effectiveness in the presence of sterile human saliva (50%) was determined for representative examples.

[16] = tested on: E. Coli ATCC 8739; test: Effect of serum on bacteriostatic activity (serial tube dilution test); type: cell-based, Escherichia coli; conditions: for Fold Increase in MIC E. Coli ATCC 8739: 40% vs 0% horse serum; for MIC: Escherichia coli, ATCC8739
Protocol: (§3) Antibacterial effectiveness in the presence of serum was determined for representative examples by the standard serial tube dilution test wherein paired comparisons of minimum inhibitory concentrations (MIC) were determined in the absence and in the presence of heat inactivated (30 min. at 56° C.) horse serum (40%) in the test medium. The results are expressed as the fold increase in MIC (mcg./ml.) versus Staphyloccocus aureus and Escherichia coli caused by the presence of serum and are presented in Table B hereinbelow.

[17] = tested on: S. Aureus ATCC 6538; test: as above; type: cell-based, Staphyloccocus aureus; conditions: for Fold Increase in MIC S. Aureus ATCC 6538: 40% vs 0% horse serum; for MIC: Staphylococcus aureus, ATCC6538
Protocol: as §3

[18] = 40% heat inactivated horse serum, read-out: MIC E. Coli ATCC 8739 40% Serum
[19] = read-out: MIC E. Coli ATCC 8739 0% Serum
[20] = 40% heat inactivated horse serum, read-out: MIC S. Aureus ATCC 6538 40% Serum
[21] = read-out: MIC S. Aureus ATCC 6538 0% Serum
[22] = 1250 mg/kg (so in the source) oral

SMILES | Mortality 7 Days ([1]; 125 mg/kg oral) | Mortality 24 Hrs ([1]; 125 mg/kg oral) | Mortality 7 Days ([1]; 250 mg/kg oral) | Mortality 24 Hrs ([1]; 250 mg/kg oral) | Mortality 7 Days ([1]; 500 mg/kg oral) | Mortality 24 Hrs ([1]; 500 mg/kg oral) | Mortality 7 Days ([1]; 1000 mg/kg oral) | Mortality 24 Hrs ([1]; 1000 mg/kg oral) | LD50 at 168 h [2] | MIC C. albicans 10231 [8] | MIC S. pyogen. C203 [13] | MIC [3] | MIC [4] | MIC [5] | MIC [6] | MIC [7] | Fold Increase in MIC E. Coli ATCC 8739 [16] | MIC [16, 18] | MIC [16, 19] | MIC [9] | further results
CCCCCCCCNc1cc[n+](CCCCCC[n+]2ccc(NCCCCCCCC)cc2)cc1 [Example 14] | 0/3 | 0/3 | 0/3 | 0/3 | 0/3 | 0/3 | 1/3 | 0/3 | > 1000 mg/kg | 1.95 µg/mL | 0.5 µg/mL | – | – | – | – | – | – | – | – | – | MIC A. niger 16404 [3]: 15.6 µg/mL; MIC P. mirab. MGH-1 [4]: 15.6 µg/mL; MIC T. menta. 9129 [5]: 1.0 µg/mL; MIC S. Aureus Smith [6]: 0.25 µg/mL; MIC C. albicans Wisc. [7]: 1.95 µg/mL; MIC K. pneum. 39645 [9]: 1.95 µg/mL; MIC E. coli AB1932-1 [10]: 0.5 µg/mL; MIC E. coli Vogel [11]: 1.0 µg/mL; MIC E. coli 100/B22 [12]: 0.5 µg/mL; MIC Ps. aerug. MGH-2 [14]: 31.3 µg/mL; Dental Plaque Preventive Activity in 50% saliva Minimum Effective Conc. (%) [15]: 0.1%
CCCCCCCNc1cc[n+](CCCCCCCCCC[n+]2ccc(NCCCCCCC)cc2)cc1 [Example 26, 1,10-bis-[4-(heptylamino)-1-pyridinium]decane dibromide] | 0/3 | 0/3 | 0/3 | 0/3 | 0/3 | 0/3 | 0/3 | 0/3 | > 1000 mg/kg | 0.75 µg/mL | 1.95 µg/mL | 2.98 µg/mL | 6 µg/mL | 0.75 µg/mL | 0.37 µg/mL | 1.49 µg/mL | 16 fold | 7.8 µg/mL | 0.5 µg/mL | 1.49 µg/mL | MIC [10]: 0.75 µg/mL; MIC [11]: 0.75 µg/mL; MIC [12]: 0.75 µg/mL; MIC [14]: 11.9 µg/mL; Fold Increase in MIC S. Aureus ATCC 6538 [17]: 16 fold; MIC [17, 20]: 1.95 µg/mL; MIC [17, 21]: 0.125 µg/mL
CCCCC(CC)CNc1cc[n+](CCCCCCCCCCCC[n+]2ccc(NCC(CC)CCCC)cc2)cc1 (centres unmarked) [Example 41C, 1,12-bis-[4-(2-ethylhexylamino)-1-pyridinium]dodecane dibromide] | 0/3 | 0/3 | 0/3 | 0/3 | 0/3 | 0/3 | 0/3 | 0/3 | > 1000 mg/kg | – | – | 3.9 µg/mL | 3.9 µg/mL | 1 µg/mL | 0.5 µg/mL | 1 µg/mL | 64 fold | 62.5 µg/mL | 1 µg/mL | 1.95 µg/mL | MIC [8]: 1 µg/mL; MIC [10]: 1 µg/mL; MIC [11]: 1 µg/mL; MIC [12]: 1 µg/mL; MIC [13]: 0.5 µg/mL; MIC [14]: 3.9 µg/mL; Fold Increase in MIC S. Aureus ATCC 6538 [17]: 32 fold; MIC [17, 20]: 7.8 µg/mL; MIC [17, 21]: 0.25 µg/mL
CCCCCCCNc1cc[n+](CCCCCCCCCCCC[n+]2ccc(NCCCCCCC)cc2)cc1 [Example 4, 1,12-bis-[4-(heptylamino)-1-pyridinium]dodecane dichloride] | 0/3 | 0/3 | – | – | 0/3 | 0/3 | 0/3 | 0/3 | – | 1.95 µg/mL | 1.0 µg/mL | – | – | – | – | – | – | – | – | – | Mortality 7 Days [1, 22]: 0/3; Mortality 24 Hrs [1, 22]: 0/3; 7-Day ALD50 ([1]; oral, suspension in 1% gum tragacanth, 10080 min): > 1000 mg/kg; MIC A. niger 16404 [3]: 7.8 µg/mL; MIC P. mirab. MGH-1 [4]: 1.95 µg/mL; MIC T. menta. 9129 [5]: 0.5 µg/mL; MIC S. Aureus Smith [6]: 0.25 µg/mL; MIC C. albicans Wisc. [7]: 1.95 µg/mL; MIC K. pneum. 39645 [9]: 1.95 µg/mL; MIC E. coli AB1932-1 [10]: 1.0 µg/mL; MIC E. coli Vogel [11]: 0.5 µg/mL; MIC E. coli 100/B22 [12]: 0.5 µg/mL; MIC Ps. aerug. MGH-2 [14]: 3.9 µg/mL; Dental Plaque Preventive Activity in 50% saliva Minimum Effective Conc. (%) [15]: Ca. 0.005%
CCCCCCCCCNc1cc[n+](CCCCCCCC[n+]2ccc(NCCCCCCCCC)cc2)cc1 [Example 29C, 1,8-bis-[4-(nonylamino)-1-pyridinium]octane dibromide] | 0/3 | 0/3 | 0/3 | 0/3 | 0/3 | 0/3 | 0/3 | 0/3 | > 1000 mg/kg | – | – | 7.8 µg/mL | 3.9 µg/mL | 1.95 µg/mL | 1 µg/mL | 3.9 µg/mL | 16 fold | 62.5 µg/mL | 3.9 µg/mL | 1.95 µg/mL | MIC [8]: 3.9 µg/mL; MIC [10]: 1.95 µg/mL; MIC [11]: 3.9 µg/mL; MIC [12]: 1.95 µg/mL; MIC [13]: 1.95 µg/mL; MIC [14]: 7.8 µg/mL; Fold Increase in MIC S. Aureus ATCC 6538 [17]: 16 fold; MIC [17, 20]: 7.8 µg/mL; MIC [17, 21]: 0.5 µg/mL
